Key:
[1] = biological target: T1, Bone morphogenetic protein 1 (Homo sapiens, UniProt P13497); assay: Inhibition of C-terminal FLAG-6x-His epitope tagged and N-terminal human RAGE signal sequence tagged human BMP1 (23 to 721 amino acids) expressed in CHO-E1 cells pre-incubated for 10 mins before promyostatin peptide substrate addition and measured after 30 mins using 50 nM BMP1 by FRET based assay; type: cell-based
T1 sequence (P13497 whole entry): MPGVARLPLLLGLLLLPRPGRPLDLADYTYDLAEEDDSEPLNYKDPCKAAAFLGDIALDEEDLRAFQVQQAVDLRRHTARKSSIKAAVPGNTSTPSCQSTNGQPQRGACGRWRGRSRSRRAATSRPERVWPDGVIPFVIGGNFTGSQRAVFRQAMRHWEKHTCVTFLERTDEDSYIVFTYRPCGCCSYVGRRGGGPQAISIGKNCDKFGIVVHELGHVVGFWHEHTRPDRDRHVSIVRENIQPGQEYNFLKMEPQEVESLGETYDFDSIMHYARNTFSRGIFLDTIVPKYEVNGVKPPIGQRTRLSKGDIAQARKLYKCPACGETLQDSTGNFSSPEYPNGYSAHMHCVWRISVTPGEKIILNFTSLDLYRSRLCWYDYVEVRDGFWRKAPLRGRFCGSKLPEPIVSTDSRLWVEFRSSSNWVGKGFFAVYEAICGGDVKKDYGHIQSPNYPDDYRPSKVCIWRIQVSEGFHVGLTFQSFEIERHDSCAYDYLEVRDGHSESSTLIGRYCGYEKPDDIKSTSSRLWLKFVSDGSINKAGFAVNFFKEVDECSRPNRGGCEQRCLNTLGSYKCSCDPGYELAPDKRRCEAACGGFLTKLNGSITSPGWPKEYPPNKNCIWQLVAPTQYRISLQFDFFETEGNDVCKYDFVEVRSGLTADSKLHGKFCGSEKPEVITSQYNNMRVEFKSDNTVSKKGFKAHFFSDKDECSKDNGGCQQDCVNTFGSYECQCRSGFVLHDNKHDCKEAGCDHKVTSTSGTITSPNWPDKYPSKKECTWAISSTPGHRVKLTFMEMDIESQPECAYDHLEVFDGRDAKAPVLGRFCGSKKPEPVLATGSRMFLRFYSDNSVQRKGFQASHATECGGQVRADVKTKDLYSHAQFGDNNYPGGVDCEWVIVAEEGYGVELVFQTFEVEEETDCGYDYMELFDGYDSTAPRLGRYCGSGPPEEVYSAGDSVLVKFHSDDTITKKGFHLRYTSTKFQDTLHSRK

[2] = biological target: T1, Bone morphogenetic protein 1; assay: Inhibition of C-terminal FLAG-6x-His epitope tagged and N-terminal human RAGE signal sequence tagged human BMP1 (23 to 721 amino acids) expressed in CHO-E1 cells pre-incubated for 10 mins before promyostatin peptide substrate addition and measured after 60 mins using 0.5 nM BMP1 by FRET based assay; type: cell-based
[3] = Reduction in PICP levels in human cardiac fibroblasts incubated for 24 to 48 hrs by ELISA; type: functional
How it was run: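 Human cardiac fibroblasts (passage 6 or below) were seeded at 10,000 to 15,000 cells per well in 96-well plates. The next day they were treated in ficoll crowding EMEM with 100 μM ascorbic acid and under 0.3% DMSO, for 24 to 48 hr at 37° C. Procollagen I C-terminal propeptide in the medium was measured with a Quidel ELISA. IC50 came from fitting levels relative to untreated controls to a log(inhibitor)-response equation in GraphPad Prism.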

Tolloid-like protein 1 = Tolloid-like protein 1 (Homo sapiens, UniProt O43897, I156V/N221S/V284A); assay: Inhibition of recombinant human TLL1 I156V/N221S/V284A mutant expressed in CHOE1A cells pre-incubated for 10 mins before promyostatin peptide substrate addition and measured after 60 mins by FRET based assay; type: cell-based
Tolloid-like protein 2 = biological target: T2, Tolloid-like protein 2 (Homo sapiens, UniProt Q9Y6L7); assay: Inhibition of C-terminal Avi-6x-His epitope tagged and N-terminal human RAGE signal sequence tagged recombinant human TLL2 (26 to 1015 amino acids) expressed in CHOE1A cells incubated for 60 mins with promyostatin peptide substrate by FRET based assay; type: cell-based
T2 sequence (Q9Y6L7 whole entry): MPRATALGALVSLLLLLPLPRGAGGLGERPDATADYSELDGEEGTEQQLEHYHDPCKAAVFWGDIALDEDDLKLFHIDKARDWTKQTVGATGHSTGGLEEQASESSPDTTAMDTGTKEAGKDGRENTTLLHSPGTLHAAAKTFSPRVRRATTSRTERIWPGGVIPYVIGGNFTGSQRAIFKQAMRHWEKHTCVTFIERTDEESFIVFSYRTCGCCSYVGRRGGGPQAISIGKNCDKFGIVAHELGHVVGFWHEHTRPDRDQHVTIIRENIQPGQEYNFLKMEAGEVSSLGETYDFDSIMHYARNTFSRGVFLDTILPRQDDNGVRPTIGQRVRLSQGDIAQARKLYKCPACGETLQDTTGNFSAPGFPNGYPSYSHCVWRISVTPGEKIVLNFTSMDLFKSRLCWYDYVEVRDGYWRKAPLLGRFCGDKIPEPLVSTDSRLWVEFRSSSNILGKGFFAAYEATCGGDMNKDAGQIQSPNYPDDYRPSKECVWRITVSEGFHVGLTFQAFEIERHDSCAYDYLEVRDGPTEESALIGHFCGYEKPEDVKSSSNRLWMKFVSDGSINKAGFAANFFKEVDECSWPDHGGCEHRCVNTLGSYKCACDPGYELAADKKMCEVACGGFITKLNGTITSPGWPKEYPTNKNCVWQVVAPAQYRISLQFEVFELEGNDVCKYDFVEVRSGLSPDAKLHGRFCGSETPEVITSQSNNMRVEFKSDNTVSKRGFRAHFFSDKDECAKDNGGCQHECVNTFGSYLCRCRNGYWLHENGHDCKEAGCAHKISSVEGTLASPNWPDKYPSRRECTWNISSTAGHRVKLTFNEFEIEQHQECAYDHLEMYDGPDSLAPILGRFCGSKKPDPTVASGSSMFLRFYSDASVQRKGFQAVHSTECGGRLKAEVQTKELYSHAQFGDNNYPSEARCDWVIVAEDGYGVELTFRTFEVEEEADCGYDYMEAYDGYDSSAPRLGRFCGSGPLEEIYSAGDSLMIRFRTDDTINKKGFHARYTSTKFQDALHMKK

Chain of Tolloid-like protein 1 (O43897 148-1013 I156V/N221S/V284A limits assumed): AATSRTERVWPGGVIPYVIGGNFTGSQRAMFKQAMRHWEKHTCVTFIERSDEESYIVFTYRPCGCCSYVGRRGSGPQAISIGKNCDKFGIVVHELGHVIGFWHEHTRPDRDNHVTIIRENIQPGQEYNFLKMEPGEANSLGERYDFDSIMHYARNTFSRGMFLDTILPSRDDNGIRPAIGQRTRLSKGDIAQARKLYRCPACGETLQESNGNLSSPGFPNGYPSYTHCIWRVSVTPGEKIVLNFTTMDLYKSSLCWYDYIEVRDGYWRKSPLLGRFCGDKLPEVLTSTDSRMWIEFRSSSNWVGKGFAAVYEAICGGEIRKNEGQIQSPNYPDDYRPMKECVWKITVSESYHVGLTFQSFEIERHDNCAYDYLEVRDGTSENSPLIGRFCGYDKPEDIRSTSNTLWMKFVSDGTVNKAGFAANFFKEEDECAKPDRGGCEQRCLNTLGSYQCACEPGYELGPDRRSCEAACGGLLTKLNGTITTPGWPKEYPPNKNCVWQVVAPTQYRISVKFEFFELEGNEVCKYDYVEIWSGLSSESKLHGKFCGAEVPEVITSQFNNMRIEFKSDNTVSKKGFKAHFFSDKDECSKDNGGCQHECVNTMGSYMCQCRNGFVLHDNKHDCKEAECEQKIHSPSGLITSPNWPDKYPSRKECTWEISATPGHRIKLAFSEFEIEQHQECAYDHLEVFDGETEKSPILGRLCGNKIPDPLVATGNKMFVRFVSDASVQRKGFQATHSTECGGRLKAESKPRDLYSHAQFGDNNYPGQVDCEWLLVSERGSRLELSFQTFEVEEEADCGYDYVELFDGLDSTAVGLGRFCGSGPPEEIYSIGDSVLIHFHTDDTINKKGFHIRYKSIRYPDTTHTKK

Row | Structure (SMILES) | IC50 [1] | IC50 [2] | IC50 [3] | IC50 (Tolloid-like protein 1) | IC50 (Tolloid-like protein 2)
1 | CCCCC[C@H](CN(O)C=O)C(=O)NCNC(=O)c1ccc(-c2ccc(C(=O)O)cc2)o1 | < 200 nM | < 126 nM | < 3980 nM | < 398 nM | < 794 nM
2 | CCCCC[C@H](CN(O)C=O)C(=O)NCNC(=O)c1ccc(-c2cccc(C(=O)O)c2)o1 | < 200 nM | < 126 nM | < 3980 nM | < 398 nM | < 794 nM
3 | CCCCC[C@@H](C(=O)NCNC(=O)c1ccc(-c2ccc(C(=O)O)c(CC(=O)O)c2)o1)[C@@H](CC)N(O)C=O | < 200 nM | < 126 nM | < 3980 nM | < 398 nM | < 794 nM
4 | CCCCC[C@H](CN(O)C=O)C(=O)NCNC(=O)c1ccc(-c2cccc(SCC)c2)o1 | < 200 nM | < 126 nM | < 3980 nM | < 398 nM | < 794 nM
5 | CCCCC[C@@H](C(=O)NCNC(=O)c1ccc(-c2ccc(C(=O)N[C@@H](CC(=O)O)C(=O)O)c(C)c2)o1)[C@@H](CC)N(O)C=O | < 200 nM | < 126 nM | < 3980 nM | < 398 nM | < 794 nM
6 | CCCCC[C@@H](C(=O)NCNC(=O)c1ccc(-c2cccc(C(=O)N[C@@H](CC(=O)O)C(=O)O)c2)o1)[C@@H](CC)N(O)C=O | < 200 nM | < 126 nM | < 3980 nM | < 398 nM | < 794 nM
7 | CCCCC[C@H](CN(O)C=O)C(=O)NCNC(=O)c1ccc(-c2ccc(F)c(C(=O)O)c2)o1 | < 200 nM | < 126 nM | < 3980 nM | < 398 nM | < 794 nM
8 | CCCCC[C@@H](C(=O)NCNC(=O)c1ccc(-c2cc(OCC(=O)O)cc(C(=O)N[C@@H](CC(=O)O)C(=O)O)c2)o1)[C@@H](CC)N(O)C=O | < 200 nM | < 126 nM | < 3980 nM | < 398 nM | < 794 nM
9 | CCCCC[C@H](CN(O)C=O)C(=O)NCNC(=O)c1ccc(-c2cccc([N+](=O)[O-])c2)o1 | < 200 nM | < 126 nM | < 3980 nM | < 398 nM | < 794 nM
10 | CCCCC[C@H](CN(O)C=O)C(=O)NCNC(=O)c1ccc(-c2cccc(OCC(F)F)c2)o1 | < 200 nM | < 126 nM | < 3980 nM | < 398 nM | < 794 nM
11 | CCCCC[C@@H](C(=O)NCNC(=O)c1ccc(-c2ccc(C(=O)O)c(C(=O)O)c2)o1)[C@@H](CC)N(O)C=O | < 200 nM | < 126 nM | < 3980 nM | < 398 nM | < 794 nM
12 | CCCCC[C@@H](C(=O)NCNC(=O)c1ccc(-c2cc(OCC)cc(C(=O)N(CC(=O)O)CC(=O)O)c2)o1)[C@@H](CC)N(O)C=O | < 200 nM | < 126 nM | < 3980 nM | < 398 nM | < 794 nM
13 | CCCCC[C@@H](C(=O)NCNC(=O)C1CCC(c2cc(OCC)cc(P(=O)(O)O)c2)O1)[C@@H](CC)N(O)C=O (stereo not given in full) | < 200 nM | < 126 nM | < 3980 nM | < 398 nM | < 794 nM

— ChEMBL document CHEMBL4476867, “Hydroxy formamide derivatives and their use” (2016)
